From ChEMBL document CHEMBL2429748, “DFT-based prediction of antifungal and insecticidal activities of perfluorophenyl antimony(III) and antimony(V) chlorides” (Med Chem Res, 2013)

Experiments:
Format in all cases: functional, organism-based
[1] = system: Aspergillus niger; assay: Antifungal activity against Aspergillus niger assessed as growth inhibition at 50 ug/mL by agar diffusion method relative to control
[2] = system: Aspergillus flavus; assay: Antifungal activity against Aspergillus flavus assessed as growth inhibition at 50 ug/mL by agar diffusion method relative to control
[3] = system: Aspergillus flavus; assay: Antifungal activity against Aspergillus flavus assessed as growth inhibition at 10 ug/mL by agar diffusion method relative to control
[4] = system: Aspergillus flavus; assay: Antifungal activity against Aspergillus flavus assessed as growth inhibition at 20 ug/mL by agar diffusion method relative to control
[5] = system: Aspergillus niger; assay: Antifungal activity against Aspergillus niger assessed as growth inhibition at 20 ug/mL by agar diffusion method relative to control
[6] = system: Aspergillus flavus; assay: Antifungal activity against Aspergillus flavus assessed as growth inhibition at 100 ug/mL by agar diffusion method relative to control
[7] = system: Aspergillus niger; assay: Antifungal activity against Aspergillus niger assessed as growth inhibition at 10 ug/mL by agar diffusion method relative to control
[8] = system: Aspergillus niger; assay: Antifungal activity against Aspergillus niger assessed as growth inhibition at 100 ug/mL by agar diffusion method relative to control

Substance | growth inhibition (GI) [1] [%] | growth inhibition (GI) [2] [%] | growth inhibition (GI) [3] [%] | growth inhibition (GI) [4] [%] | growth inhibition (GI) [5] [%] | growth inhibition (GI) [6] [%] | growth inhibition (GI) [7] [%] | growth inhibition (GI) [8] [%]
trichlorobis(pentafluorophenyl)-{5}-stibane | 60 | 83.3 | 60 | 76.6 | 40 | 96.7 | 25 | 75
dichlorotris(pentafluorophenyl)-{5}-stibane | 60 | 73.3 | 60 | 66.6 | 50 | 83.3 | 30 | 80
chlorobis(perfluorophenyl)stibine | 70 | 76.6 | 53.3 | 66.6 | 50 | 86.7 | 25 | 95
tris(perfluorophenyl)stibine | 75 | 80 | 60 | 66.6 | 50 | 86.7 | 50 | 90
tetrachloro(pentafluorophenyl)-{5}-stibane | 75 | 86.7 | 73.3 | 80 | 40 | 93.3 | 30 | 90
dichloro(perfluorophenyl)stibine | 75 | 66.6 | 53.3 | 60 | 60 | 73.3 | 50 | 90
chloro(ethyl)tris(pentafluorophenyl)-{5}-stibane | 80 | 83.3 | 66.6 | 73.3 | 75 | 96.7 | 60 | 95
